The values that follow come from patent US20010044445A1, “AZOLE INHIBITORS OF CYTOKINE PRODUCTION” (priority 1999, published 2001).

The term IC50 denotes the point on the concentration scale where inhibition reaches its midpoint. A low value points to higher potency.

In the experiment the test system is Human peripheral blood mononuclear cells. The experiment in a line: Human Concanavalin-A Proliferation Assay (Con HU Assay). Format: cell-based. Particulars: concanavalin-A stimulated human PBMC; for inhibition at 10 µM / inhibition at 1 µM / inhibition at 100 µM: 72 h, read-out: % Inhibition of proliferation (at concentrations of 1,10, or 100 μm); for inhibition at 10 µM / inhibition at 1 µM / % Inhibition of proliferation (at concentrations of 1,10, or 100 μm) / inhibition at 100 µM: 3 days; for IC50: tritiated thymidine; for inhibition at 100 µM: concentration 100 μm (in parentheses in the cell). The procedure:
Human peripheral blood mononuclear cells were cultured in RPMI 1640 medium supplemented with 10 μg/ml gentamicin, 50 μM 2-mercaptoethanol, 1X MEM non-essential amino acids (Sigma Chemical Co., St. Louis, Mo.), 100 U/ml sodium penicillin G, 100 μg/ml streptomycin sulfate, 2 mM L-glutamine, 1 mM sodium pyruvate (Life Technologies, Grand Island, N.Y.) and 10% fetal bovine serum (Hyclone, Logan, Utah) at 37° C. with 5% CO2.
The procedure in Current Protocols in Immunology, Volume 1, Published by the Greene Publishing Associates and John Wiley & Sons, Inc, Edited by Richard Coico, 1994, hereby incorporated by reference, was followed. Briefly, 50 ml of blood from human volunteers was collected in heparinized syringes and mixed. Blood was diluted 1:1 in Dulbecco's phosphate buffered saline (D-PBS) (Life Technologies, Grand Island, N.Y.) and mixed. PBS-blood mixture was overlaid into 50 ml centrifuge tubes containing 15 ml Histopaque 1077 (Sigma Chemical Co., St. Louis, Mo.) and centrifuged at 500 X G for 30 minutes at room temperature. Cells at the interface from each Histopaque tube were removed and mixed with 5 ml of D-PBS. Each cell suspension was diluted to 50 ml with D-PBS, mixed and centrifuged at 400 X G for 15 minutes at room temperature. After most of the supernatant was removed, cells were resuspended to 40 ml with D-PBS per tube (2 tubes per donor). Cells were centrifuged at 400 X G for 10 minutes at room temperature. Pellets were resuspended in 10 ml of supplemented RPMI 1640 and cell number determined with a Coulter counter. Cells were diluted to a concentration of 0.5×10^6 cells per mL.
The procedure in Current Protocols in Immunology, Volume 1, Published by the Greene Publishing Associates and John Wiley & Sons, Inc, Edited by Richard Coico, 1994, hereby incorporated by reference, was followed. Briefly, test compounds were added to appropriate wells on 96-well tissue culture plates (Corning Glass Works, Corning, N.Y.) in 20 µl of supplemented RPMI 1640. Human peripheral blood mononuclear cells were added to each well in 100 μl volumes (final cell concentration equal to 50,000 cells per well). After 15 minutes, 100 μl of 5 μg/ml concanavalin-A (Sigma Chemical Co., St. Louis, Mo.) in supplemented RPMI 1640 was added to a final concentration of 2.5 μg/ml. Plates were incubated for 3 days at 37° C. with 5% CO2. On day 3, plates were pulsed with 0.5 μCi/well tritiated thymidine (New England Nuclear, Boston, Mass.). After 6 hours, plates were harvested on a Tomatec 96-well havester (Orange, Conn.). Glass filter mats were counted on a Matrix 9600 direct beta counter (Packard, Meriden, Conn.).

The mark [1] stands for this setting: Homo sapiens, PBMC, concentration 10 μm (in parentheses in the cell).
Setting [2] is: Homo sapiens, PBMC, concentration 1 μm (in parentheses in the cell).

Regarding `O=C(Nc1ccc(-n2nc(C(F)(F)F)cc2C(F)(F)F)cc1)c1cc(Cl)cnc1Cl` [Example 270, N-[4-[3,5-bis(trifluoromethyl)-1H-pyrazol-1-yl]phenyl]-2,5-dichloro-3-pyridinecarboxamide], under setting [1], the inhibition at 10 µM worked out at 100%. Also, for the setting “Homo sapiens, PBMC”, inhibition was half-maximal at 228 nM (IC50). `Fc1ccc(NCc2ccc(-n3nc(C(F)(F)F)cc3C(F)(F)F)cc2)c(F)c1` [Example 108, 4-[3,5-bis(trifluoromethyl)-1H-pyrazol-1-yl]-N-(2,4-difluorophenyl)benzenemethanamine]: under setting [2], the inhibition at 1 µM was found to be 18%.

In the case of `N#Cc1cccc(/C=C\c2ccc(-n3nc(C(F)(F)F)cc3C(F)(F)F)cc2)c1` [Example 139, (Z)-3-[2-[4-[3,5-bis(trifluoromethyl)-1H-pyrazol-1-yl]phenyl]ethenyl]benzonitrile], under setting [1], the inhibition at 10 µM was 5%. For the setting “Homo sapiens, PBMC”, `N#Cc1cc(NC(=O)c2ccccc2F)ccc1-n1nc(C(F)(F)F)cc1C(F)(F)F` [Example 299, N-(4-(3,5-bis(trifluoromethyl)-1H-pyrazol-1-yl)-3-cyanophenyl)-2-fluorobenzamide] came in with a concentration for half-maximal inhibition (IC50) of 269 nM. As to `O=C(Nc1ccc(-n2nc(C(F)(F)F)cc2C(F)(F)F)cc1)C1CC2C=CC1C2` (stereo not drawn) [Example 26, N-[4-[3,5-bis(trifluoromethyl)-1H-pyrazol-1-yl]phenyl]bicyclo[2.2.1]hept-5-ene-2-carboxamide], under setting [2], the inhibition at 1 µM came out at 24%.

On to `N#Cc1cc(-c2nccs2)nn1-c1ccc(NC(=O)c2ccncc2F)cc1` [Example 338, N-(4-(5-cyano-3-(1,3-thiazol-2-yl)-1H-pyrazol-1-yl)phenyl)-3-fluoroisonicotinamide], for which, for the setting “Homo sapiens, PBMC”, half-maximal inhibition (IC50) was put at 164 nM.

In turn, `N#Cc1cccc(NCc2ccc(-n3nc(C(F)(F)F)cc3C(F)(F)F)cc2)c1` [Example 95, 3-[4-[[[3,5-bis(trifluoromethyl)-1H-pyrazol-1-yl]phenyl]methyl]amino]benzonitrile] came in with a half-maximal inhibitory concentration (IC50) of 7280 nM. Also, for the setting “concentration 10 μm (in parentheses in the cell)”, the “% Inhibition of proliferation (at concentrations of 1,10, or 100 μm)” value was 47(10) %. `O=C(Nc1ccc(-n2nc(C(F)(F)F)cc2[N+](=O)[O-])cc1)c1ccccc1F` [Example 326, 2-fluoro-N-(4-(5-nitro-3-(trifluoromethyl)-1H-pyrazol-1-yl)phenyl)benzamide] came in with a concentration for half-maximal inhibition (IC50) (Homo sapiens, PBMC) of 166 nM. For “N-(4-(5-acetyl-3-(trifluoromethyl)-1H-pyrazol-1-yl)phenyl)-2-fluorobenzamide [Example 305]”, the half-inhibitory concentration (IC50) turned out to be 170 nM.

Under “Homo sapiens, PBMC”, `O=C(Nc1ccc(-n2nc(C(F)(F)F)cc2C(F)(F)F)cn1)c1ccccc1F` [Example 297, N-(5-(3,5-bis(trifluoromethyl)-1H-pyrazol-1-yl)-2-pyridinyl)-2-fluorobenzamide] yielded a half-maximal inhibitory concentration (IC50) of 251 nM. Turning to `N#Cc1cccc(NCc2ccc(-n3nc(C(F)(F)F)cc3C(F)(F)F)cc2)c1` [Example 128, 3-[[[4-[3,5-bis(trifluoromethyl)-1H-pyrazol-1-yl]phenyl]methyl]amino]benzonitrile], the inhibition at 1 µM under setting [2] came to 25%. For `CN(C)c1ccccc1C(=O)Nc1ccc(-n2nc(C(F)(F)F)cc2C(F)(F)F)cc1` [Example 86, N-[4-[3,5-bis(trifluoromethyl)-1H-pyrazol-1-yl]phenyl]-2-(dimethylamino)benzamide], under setting [2], the inhibition at 1 µM was found to be 33%. For `O=C(Nc1ccc(-n2nc(-c3ccncc3)cc2C(F)(F)F)cc1)c1ccncc1F` [Example 318, 3-fluoro-N-(4-(3-(4-pyridinyl)-5-(trifluoromethyl)-1H-pyrazol-1-yl)phenyl)isonicotinamide], the half-maximal inhibitory concentration (IC50) (Homo sapiens, PBMC) was 258 nM. In the case of `O=C(Nc1ccc(-n2nc(-c3ccoc3)cc2OC(F)F)cc1)c1ccncc1F` [Example 359, N-(4-(5-(difluoromethoxy)-3-(3-furyl)-1H-pyrazol-1-yl)phenyl)-3-fluoroisonicotinamide], for the setting “Homo sapiens, PBMC”, half-maximal inhibition (IC50) required 261 nM. As to `Cc1cc(C(F)(F)F)nn1-c1ccc(NC(=O)c2ccc(Cl)cc2)cc1` [Example 281, 4-chloro-N-[4-[5-methyl-3-(trifluoromethyl)-1H-pyrazol-1-yl]phenyl]benzamide], under “Homo sapiens, PBMC”, the inhibition at 100 µM stood at 94% and inhibition was half-maximal at 1060 nM (IC50). In turn, `Cn1cccc1-c1cc(OC(F)F)n(-c2ccc(NC(=O)c3ccncc3F)cc2)n1` [Example 360, N-(4-(5-(difluoromethoxy)-3-(1-methyl-1H-pyrrol-2-yl)-1H-pyrazol-1-yl)phenyl)-3-fluoroisonicotinamide] came in with a 50% inhibitory concentration (IC50) (Homo sapiens, PBMC) of 329 nM.

`CCCC(=O)Nc1ccc(-n2nc(C(F)(F)F)cc2C(F)(F)F)cc1` [Example 175, N-[4-[3,5-Bis(trifluoromethyl)-1H-pyrazol-1-yl]phenyl]butanamide]: for the setting “Homo sapiens, PBMC”, the inhibition at 100 µM turned out to be 100% and the midpoint of inhibition, the IC50, lay at 562 nM. On to `CCN(CC)c1ccc(C(=O)Nc2ccc(-n3nc(C(F)(F)F)cc3C(F)(F)F)cc2)cc1` [Example 122, N-[4-[3,5-bis(trifluoromethyl)-1H-pyrazol-1-yl]phenyl]-4-(diethylamino)benzamide], for which the inhibition at 1 µM under setting [2] worked out at 15%. Consider `O=C(Nc1ccc(-n2nc(C(F)(F)F)cc2C(F)(F)F)cc1)c1c(F)c(F)c(Br)c(F)c1F` [Example 236, N-[4-[3,5-bis(trifluoromethyl)-1H-pyrazol-1-yl]phenyl]-4-bromo-2,3,5,6-tetrafluorobenzamide], for which the inhibition at 10 µM under setting [1] amounted to 100%. Where the note is “Homo sapiens, PBMC”, it took 180 nM to reach half-maximal inhibition (IC50). For `CC(=O)Nc1ccc(-n2nc(C(F)(F)F)cc2C(F)(F)F)cc1` [Example 156], for the setting “concentration 1 μm (in parentheses in the cell)”, the “% Inhibition of proliferation (at concentrations of 1,10, or 100 μm)” value is on record as 16(1) %. In the case of `CNC(=O)c1ccccc1C(=O)Nc1ccc(-n2nc(C(F)(F)F)cc2C(F)(F)F)cc1` [Example 115, N-[4-[3,5-bis(trifluoromethyl)-1H-pyrazol-1-yl]phenyl]-N′-methyl-1,2-benzenedicarboxamide], for the setting “Homo sapiens, PBMC”, the inhibition at 100 µM worked out at 71% and the IC50 amounted to 51300 nM.

`O=C(Nc1ccc(-n2nc(C(F)(F)F)cc2C(F)(F)F)cc1)c1cccc([N+](=O)[O-])c1Br` [Example 205, N-[4-[3,5-bis(trifluoromethyl)-1H-pyrazol-1-yl]phenyl]-2-bromo-3-nitrobenzamide]: the inhibition at 10 µM under setting [1] came to 100%. It took 196 nM to reach half-maximal inhibition (Homo sapiens, PBMC) (IC50). In the case of `O=C(Nc1ccc(-n2nc(C(F)(F)F)cc2OC(F)F)cc1)c1ccncc1` [Example 322, N-(4-(5-(difluoromethoxy)-3-(trifluoromethyl)-1H-pyrazol-1-yl)phenyl)isonicotinamide], the midpoint of inhibition (Homo sapiens, PBMC), the IC50, lay at 238 nM. Under “Homo sapiens, PBMC”, `Cc1nnsc1C(=O)Nc1ccc(-n2nc(-c3nccs3)cc2C(F)(F)F)cc1` [Example 342, 4-methyl-N-(4-(3-(1,3-thiazol-2-yl)-5-(trifluoromethyl)-1H-pyrazol-1-yl)phenyl)-1,2,3-thiadiazole-5-carboxamide] gave an IC50 of 238 nM.

`O=C(Nc1ccc(-n2nc(-c3nccs3)cc2Cl)cc1)c1ccncc1F` [Example 347, N-(4-(5-chloro-3-(1,3-thiazol-2-yl)-1H-pyrazol-1-yl)phenyl)-3-fluoroisonicotinamide] came in with an IC50 (Homo sapiens, PBMC) of 288 nM.

`Cc1nnsc1C(=O)Nc1ccc(-n2nc(-c3cccnc3)cc2[N+](=O)[O-])cc1` [Example 337, N-[4-[3-(3-pyridyl)-5-nitro-1H-pyrazol-1-yl]phenyl]-4-methylthiadiazol-5-yl-carboxamide] yielded a concentration for half-maximal inhibition (IC50) of 221 nM.
